Where two headings read alike, the source gives them in different places.
Experiments:
[1] = tested on: Peripheral blood mononuclear cells (PBMC); assay: PBMC assay: induction of cytokines INFα and INFγ; format: cell-based; settings: Homo sapiens, PBMCs, 16 h incubation, mean from three different PBMC donors
[2] = Cytotoxic effect on PBMCs (CellTiter-Glo Luminescent Cell Viability Assay); format: cell-based; settings: human, 16 h incubation, mean from three different PBMC donors
Protocol: Briefly, buffy coats were obtained from the Institute of Hematology and Blood Transfusion (Prague, Czech Republic). Informed written consent was signed by each volunteer. Isolation of PBMCs was performed on Ficoll density gradient centrifugation (Ficoll Paque Plus, GE Healthcare, USA) in SepMate tubes (SepMate PBMC Isolation Tubes, Stemcell Technologies, Canada). Obtained PBMCs were washed using PBS with 2 mM EDTA, and then seeded onto 96-well U-shape plates at density 500,000 cells per well in RPMI 1640 media with 10% (v/v) heat inactivated FBS. Serially diluted CDNs were added to cells and cells were incubated for 16 h (37° C., 5% CO2). After incubation, medium was collected to determine levels of INFα and INFγ using ProcartaPlex Assays and MAGPIX System (Merck, Germany) according to the manufacturer's instructions. Cytotoxic effect of CDNs on PBMCs was determined using CellTiter-Glo® Luminescent Cell Viability Assay (Promega Corporation, USA) according to manufacturer's instruction.

wt hSTING = wt hSTING (Homo sapiens, UniProt Q86WV6); assay: Standard 293T reporter cell-based assay (IRF-3 dependent firefly luciferase reporter)
Protocol: Briefly, the day before testing cells were seeded onto 96-well white plates at density 250,000 cells per cm^2 in DMEM High glucose medium supplemented with 10% (v/v) heat inactivated fetal bovine albumin (FBS). The next day medium was removed, and cell were incubated for 7 h (37° C., 5% CO2) with serial dilution of compounds in medium. After incubation, Bright-Glo Luciferase Assay System reagent was added to cells and luminescence readout was performed on SPARK instrument (Tecan, Austria). EC50 values were determined using in software Prism (GraphPad, USA).

[3] = read-out: PBMC assay EC50 INF α
[4] = read-out: PBMC assay EC50 INF γ
[5] = read-out: Standard assay EC50, 293T reporter cells expressing wt hSTING, 7 h incubation, mean of three independent experiments in triplicates, SD <50%

Sequence of wt hSTING (Q86WV6 whole entry H232R): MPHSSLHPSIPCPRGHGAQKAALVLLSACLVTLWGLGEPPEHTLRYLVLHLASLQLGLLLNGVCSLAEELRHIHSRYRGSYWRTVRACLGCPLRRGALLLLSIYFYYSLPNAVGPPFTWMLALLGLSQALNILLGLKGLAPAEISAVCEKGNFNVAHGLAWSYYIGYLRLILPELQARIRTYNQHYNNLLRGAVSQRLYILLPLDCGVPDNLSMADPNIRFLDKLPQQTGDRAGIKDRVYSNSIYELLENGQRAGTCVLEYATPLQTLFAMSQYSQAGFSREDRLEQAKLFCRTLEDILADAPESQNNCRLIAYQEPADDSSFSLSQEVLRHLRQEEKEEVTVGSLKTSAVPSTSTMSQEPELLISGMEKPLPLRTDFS

Row | SMILES | EC50 [1, 3] [µM] | EC50 [1, 4] [µM] | CC50 at 16 h [2] [µM] | EC50 (wt hSTING; [5]) [µM] | EC50 (wt hSTING) [µM]
1 | Cc1cn([C@@H]2O[C@@H]3COP(=O)(O)O[C@@H]4[C@H](O)[C@@H](COP(=O)(O)O[C@H]3[C@H]2O)O[C@H]4n2cnc3c(=O)[nH]c(N)nc32)c2ncnc(N)c12 [Compound 1a, 2-amino-9-((5R,7R,8R,12aR,14R,15R,15aS,16R)-14-(4-amino-5-methyl-7H-pyrrolo[2,3-d]pyrimidin-7-yl)-2,10,15,16-tetrahydroxy-2,10-dioxidooctahydro-12H-5,8-methanofuro[3,2-l][1,3,6,9,11]pentaoxa[2,10]diphosphacyclotetradecin-7-yl)-1,9-dihydro-6H-purin-6-one] | 30.6 | 7.8 | > 200 |  | 
2 | Nc1nc2c(ncn2[C@@H]2O[C@@H]3COP(=O)(O)O[C@H]4[C@@H](O)[C@H](n5cc(-c6ccccc6)c6c(N)ncnc65)O[C@@H]4COP(=O)(O)O[C@@H]2[C@@H]3O)c(=O)[nH]1 [Compound 1b, 2-amino-9-((5R,7R,8R,12aR,14R,15R,15aS,16R)-14-(4-amino-5-phenyl-7H-pyrrolo[2,3-d]pyrimidin-7-yl)-2,10,15,16-tetrahydroxy-2,10-dioxidooctahydro-12H-5,8-methanofuro[3,2-l][1,3,6,9,11]pentaoxa[2,10]diphosphacyclotetradecin-7-yl)-1,9-dihydro-6H-purin-6-one] |  |  | > 200 | 40.7 | 
3 | Nc1nc2c(ncn2[C@@H]2O[C@@H]3COP(=O)(O)O[C@H]4[C@@H](O)[C@H](n5cc(-c6ccc7ccccc7c6)c6c(N)ncnc65)O[C@@H]4COP(=O)(O)O[C@@H]2[C@@H]3O)c(=O)[nH]1 [Compound 1c, 2-amino-9-((5R,7R,8R,12aR,14R,15R,15aS,16R)-14-(4-amino-5-(naphthalen-2-yl)-7H-pyrrolo[2,3-d]pyrimidin-7-yl)-2,10,15,16-tetrahydroxy-2,10-dioxidooctahydro-12H-5,8-methanofuro[3,2-l][1,3,6,9,11]pentaoxa[2,10]diphosphacyclotetradecin-7-yl)-1,9-dihydro-6H-purin-6-one] |  |  | > 200 | 7.63 | 
4 | Nc1nc2c(ncn2[C@@H]2O[C@@H]3COP(=O)(O)O[C@H]4[C@@H](O)[C@H](n5cc(-c6cccc7ccccc67)c6c(N)ncnc65)O[C@@H]4COP(=O)(O)O[C@@H]2[C@@H]3O)c(=O)[nH]1 [Compound 1d, 2-amino-9-((5R,7R,8R,12aR,14R,15R,15aS,16R)-14-(4-amino-5-(naphthalen-1-yl)-7H-pyrrolo[2,3-d]pyrimidin-7-yl)-2,10,15,16-tetrahydroxy-2,10-dioxidooctahydro-12H-5,8-methanofuro[3,2-l][1,3,6,9,11]pentaoxa[2,10]diphosphacyclotetradecin-7-yl)-1,9-dihydro-6H-purin-6-one] |  |  | > 200 | 42.5 | 
5 | Nc1nc2c(ncn2[C@@H]2O[C@@H]3COP(=O)(O)O[C@H]4[C@@H](O)[C@H](n5cc(-c6cc7ccccc7c7ccccc67)c6c(N)ncnc65)O[C@@H]4COP(=O)(O)O[C@@H]2[C@@H]3O)c(=O)[nH]1 [Compound 1e, 2-amino-9-((5R,7R,8R,12aR,14R,15R,15aS,16R)-14-(4-amino-5-(phenanthren-9-yl)-7H-pyrrolo[2,3-d]pyrimidin-7-yl)-2,10,15,16-tetrahydroxy-2,10-dioxidooctahydro-12H-5,8-methanofuro[3,2-l][1,3,6,9,11]pentaoxa[2,10]diphosphacyclotetradecin-7-yl)-1,9-dihydro-6H-purin-6-one] |  |  | > 200 | 65.5 | 
6 | Nc1nc2c(ncn2[C@@H]2O[C@@H]3COP(=O)(O)O[C@H]4[C@@H](O)[C@H](n5cc(-c6ccc(-c7ccccc7)cc6)c6c(N)ncnc65)O[C@@H]4COP(=O)(O)O[C@@H]2[C@@H]3O)c(=O)[nH]1 [Compound 1f, 9-((5R,7R,8R,12aR,14R,15R,15aS,16R)-14-(5-([1,1′-biphenyl]-4-yl)-4-amino-7H-pyrrolo[2,3-d]pyrimidin-7-yl)-2,10,15,16-tetrahydroxy-2,10-dioxidooctahydro-12H-5,8-methanofuro[3,2-l][1,3,6,9,11]pentaoxa[2,10]diphosphacyclotetradecin-7-yl)-2-amino-1,9-dihydro-6H-purin-6-one] | 7.4 | 2 | > 200 | 2.95 | 
7 | Nc1nc2c(ncn2[C@@H]2O[C@@H]3COP(=O)(O)O[C@H]4[C@@H](O)[C@H](n5cc(-c6ccc(-c7ccc8ccccc8c7)cc6)c6c(N)ncnc65)O[C@@H]4COP(=O)(O)O[C@@H]2[C@@H]3O)c(=O)[nH]1 [Compound 1g, 2-amino-9-((5R,7R,8R,12aR,14R,15R,15aS,16R)-14-(4-amino-5-(4-(naphthalen-2-yl)phenyl)-7H-pyrrolo[2,3-d]pyrimidin-7-yl)-2,10,15,16-tetrahydroxy-2,10-dioxidooctahydro-12H-5,8-methanofuro[3,2-l][1,3,6,9,11]pentaoxa[2,10]diphosphacyclotetradecin-7-yl)-1,9-dihydro-6H-purin-6-one] | 5.1 | 1.8 | > 200 | 3.06 | 
8 | Nc1nc2c(ncn2[C@@H]2O[C@@H]3COP(=O)(O)O[C@H]4[C@@H](O)[C@H](n5cc(-c6ccco6)c6c(N)ncnc65)O[C@@H]4COP(=O)(O)O[C@@H]2[C@@H]3O)c(=O)[nH]1 [Compound 1i, 2-amino-9-((5R,7R,8R,12aR,14R,15R,15aS,16R)-14-(4-amino-5-(furan-2-yl)-7H-pyrrolo[2,3-d]pyrimidin-7-yl)-2,10,15,16-tetrahydroxy-2,10-dioxidooctahydro-12H-5,8-methanofuro[3,2-l][1,3,6,9,11]pentaoxa[2,10]diphosphacyclotetradecin-7-yl)-1,9-dihydro-6H-purin-6-one] | 2.8 | 2.24 | > 200 |  | 
9 | Nc1nc2c(ncn2[C@@H]2O[C@@H]3COP(=O)(O)O[C@H]4[C@@H](O)[C@H](n5cc(-c6cccs6)c6c(N)ncnc65)O[C@@H]4COP(=O)(O)O[C@@H]2[C@@H]3O)c(=O)[nH]1 [Compound 1j, 2-amino-9-((5R,7R,8R,12aR,14R,15R,15aS,16R)-14-(4-amino-5-(thiophen-2-yl)-7H-pyrrolo[2,3-d]pyrimidin-7-yl)-2,10,15,16-tetrahydroxy-2,10-dioxidooctahydro-12H-5,8-methanofuro[3,2-l][1,3,6,9,11]pentaoxa[2,10]diphosphacyclotetradecin-7-yl)-1,9-dihydro-6H-purin-6-one] | 2.88 | 2.6 | > 200 |  | 
10 | Nc1nc2c(ncn2[C@@H]2O[C@@H]3COP(=O)(O)O[C@H]4[C@@H](O)[C@H](n5cc(-c6cccc7c6oc6ccccc67)c6c(N)ncnc65)O[C@@H]4COP(=O)(O)O[C@@H]2[C@@H]3O)c(=O)[nH]1 [Compound 1m, 2-amino-9-((5R,7R,8R,12aR,14R,15R,15aS,16R)-14-(4-amino-5-(dibenzo[b,d]furan-4-yl)-7H-pyrrolo[2,3-d]pyrimidin-7-yl)-2,10,15,16-tetrahydroxy-2,10-dioxidooctahydro-12H-5,8-methanofuro[3,2-l][1,3,6,9,11]pentaoxa[2,10]diphosphacyclotetradecin-7-yl)-1,9-dihydro-6H-purin-6-one] |  |  | > 200 | 19.1 | 
11 | Nc1nc2c(ncn2[C@@H]2O[C@@H]3COP(=O)(O)O[C@H]4[C@@H](O)[C@H](n5ccc6c(N)ncnc65)O[C@@H]4COP(=O)(O)O[C@@H]2[C@@H]3O)c(=O)[nH]1 [Compound 1n, 2-amino-9-((5R,7R,8R,12aR,14R,15R,15aS,16R)-14-(4-amino-7H-pyrrolo[2,3-d]pyrimidin-7-yl)-2,10,15,16-tetrahydroxy-2,10-dioxidooctahydro-12H-5,8-methanofuro[3,2-l][1,3,6,9,11]pentaoxa[2,10]diphosphacyclotetradecin-7-yl)-1,9-dihydro-6H-urin-6-one, reference compound] | 54.5 | 67.6 | > 200 |  | 
12 | C#Cc1cn([C@@H]2O[C@@H]3COP(=O)(O)O[C@@H]4[C@H](O)[C@@H](OCP(=O)(O)O[C@H]3[C@H]2O)O[C@H]4n2cnc3c(=O)[nH]c(N)nc32)c2ncnc(N)c12 [Compound 53, 2-amino-9-((5R,7R,8R,12aR,14R,15R,15aS,16S)-14-(4-amino-5-ethynyl-7H-pyrrolo[2,3-d]pyrimidin-7-yl)-2,10,15,16-tetrahydroxy-2,10-dioxidooctahydro-5,8-methanofuro[3,2-l][1,3,6,8,11]pentaoxa[2,10]diphosphacyclotetradecin-7-yl)-1,9-dihydro-6H-purin-6-one, reference compound] |  |  |  |  | 109

From patent US20240343754A1, “7-SUBSTITUTED 7-DEAZAADENINE-CONTAINING 2',3'-CYCLIC DINUCLEOTIDES” (USTAV ORGANICKE CHEMIE A BIOCHEMIE AV CR, V. V. I., priority 2021, published 2024)
